From patent US20070203212A1, “METHOD OF TREATING OSTEOARTHRITIS” (WARNER-LAMBERT COMPANY, priority 2002, published 2007)

System: human recombinant IL-6/IL-6sR induced joint pain
Assay: IL-6 with IL-6 soluble receptor induced joint pain in rat
Assay type: in vivo
Experimental: It should be appreciated that in Biological Methods 1, 2, 4, and 5 below, hind paw weight bearing differentials between the paw of the limb having the control joint (in animals administered test compound vehicle only) and the paw of the limb having the contralateral test joint (in control or inducement animals administered test compound vehicle only and in treatment animals administered test compound dissolved in test compound vehicle) were determined using an incapacitance tester, model 2KG (Linton Instrumentation, Norfolk, United Kingdom). The incapacitance tester has a chamber on top with an outwardly sloping front wall that supports a rat's front limbs, and two weight sensing pads, one for each hind paw, that facilitates this determination. The hind paw weight bearing differentials were expressed in grams and calculated as follows: (the average weight in grams placed on the control limb minus the average weight in grams placed on the contralateral test limb for each of the inducement or treatment animals) minus (the average weight in grams placed on the control limb minus the average weight in grams placed on the contralateral test limb for each of the control animals). All results were statistically analyzed by comparing the average results for an induction or treatment group with the average result for its control group at the same time point using analysis of covariance (“ANCOVA”) followed by the Hoehberg's procedure and those with statistical significance had p<0.05 unless otherwise noted.
Human recombinant IL-6 (100 ng per rat; R&D Systems, Minneapolis, Minn.) was incubated at room temperature with human recombinant IL-6 soluble receptor (300 ng per rat; R&D Systems, Minneapolis, Minn.) in phosphate buffered saline (“PBS”) for 15 minutes prior to injection. Rats were anesthetized with 5% volume/volume (“v/v”) isoflurane gas and maintained with 2% v/v isoflurane gas. The anesthetized rats were given a single intra-articular injection of IL-6/WL-6sR through the infrapatellar ligament of the right knee in a volume of 50 μL. The contralateral control knee was injected with 50 μL of PBS. Administration of isoflurane gas was discontinued, and the rats became fully conscious about 5 minutes later.
Shifts in hind paw weight distribution from the right (arthritic) to the left (contralateral control) paws were utilized as an index of joint pain and as a measure of compound efficacy. An incapacitance tester (Model 2KG, Linton Instrumentation, UK) was employed for determination of hind paw weight distribution. Each data point is the mean of three, 5-second readings.
CI-1027 was dissolved in BPMC vehicle as described above. Baseline changes in hind paw weight distribution readings were determined one day prior to injection of IL-6/IL-6sR. On the day of the experiment (Day 0), a single dose of CI-1027 (10, 30 or 100 mg/kg) was given via oral gavage 3 hours prior to injection of IL-6/IL-6sR (n=10 rats per group). Changes in hind paw weight distribution were determined one, three, and six hours after injection of IL-6/IL-6sR.
In Table 4 below, data from the method of Biological Method 5 are expressed as a percent inhibition of a change in hind paw weight distribution ± the standard error of the mean. The percents inhibition were calculated as follows. Percent inhibition of a change in hind paw weight distribution [formula] wherein: ΔWC is the hind-paw weight differential between the healthy limb and the hrIL-6+ hrIL-6sR injected limb of the control animal group administered vehicle alone, as measured at time 1, 3, or 6 hours post injection; and
ΔWG is the hind-paw weight differential between the healthy limb and the hrIL-6+ hrIL-6sR injected limb of a treatment animal group as measured at time 1, 3, or 6 hours post injection.

## CC(C)(CCCCOCCCCC(C)(C)C(=O)[O-])C(=O)[O-].[Ca+2] [CI-1027, 6-(5-carboxy-5-methyl-hexyloxy)-2,2-dimethyl-hexanoic acid, calcium salt]
10 mg/kg PO 3 hours before IL-6/IL-6sR injection, 1 hour post injection (FIG. 6)
  inhibition of change in hind paw weight distribution: 53±9%
10 mg/kg PO 3 hours before injection, repeat experiment, blinded readings (FIG. 7)
  inhibition of change in hind paw weight distribution: 63±6%
30 mg/kg PO 3 hours before IL-6/IL-6sR injection, 1 hour post injection (FIG. 6)
  inhibition of change in hind paw weight distribution: 74±8%
30 mg/kg PO 3 hours before injection, repeat experiment, blinded readings (FIG. 7)
  inhibition of change in hind paw weight distribution: 71±10%
100 mg/kg PO 3 hours before IL-6/IL-6sR injection, 1 hour post injection (FIG. 6)
  inhibition of change in hind paw weight distribution: 57±15%
10, 30, 100 mg/kg PO, 3 and 6 hours post injection (6 and 9 hours post administration)
  change in hind paw weight distribution: No significant effect
Single oral dose 30 mg/kg on Day 1, 4 hours post dose
  Inhibition of Pain (% versus control), IL-6: 71 ± 10%
